Measured values: EP2157088A1, “INDICYANINE DYES AND THE DERIVATIVES THEREOF FOR ANALYSING BIOLOGICAL MICROMOLECULES” (UCHREZHDENIE ROSSIISKOI AKADEMII NAUK INSTITUT …, priority 2007, dated 2008)

Legend:
Assay type in all cases: physicochemical
[1] = Relative efficiency of fluorescence / absolute sensitivity of label, normalized to dye A30 in PBS; conditions: for Sensitivity of record 635/ 670: excitation 635 nm, record 670 nm; for Sensitivity of record 655/ 690: excitation 655 nm, record 690 nm; for Sensitivity of record max/ max: excitation and record in absorption and fluorescence maxima, ε*Φ normalized to A30 in PBS
Description: The data obtained were as follows: • on excitation and record in absorption and fluorescence maxima, the relative efficiency of fluorescence exceeds 0.80 for dyes (A10), (A22), (A23), (A25), and (A30) in methanol and for dyes (A22), (A25), and (A30) in PBS (Table 1, Fig. 4), whereas for dyes of formula (I) (R1 = -CH3, R2= R6= -SO3^-; R3= -(CH2)5COOH, R4= -C2H5; R5= -H) the values are 0.69 in methanol and 0.67 in PBS; • on excitation at wavelength 655 nm and record at 690 nm, the relative efficiency of fluorescence exceeds 0.25 for dyes (A25) and (A30) in methanol and is higher than 0.18 for dyes (A24) and (A30) in PBS (Table 1, Fig. 5), whereas for dyes of formula (I) (R1 = -CH3, R2 = R6= -SO3^-; R3= -(CH2)5COOH, R4= -C2H5; R5= -H) the values are 0.18 in methanol and 0.11 in PBS; • on excitation at wavelength 635 nm and record at 670 nm, the relative efficiency of fluorescence exceeds 0.50 for dyes (A1), (A11), (A23) in methanol and is higher than 0.45 for dyes (A22), (A25), and (A30) in PBS (Table 1, Fig. 6), whereas for dyes of formula (I) (R1= -CH3, R2= R6= -SO3^-; R3= -(CH2)5COOH, R4= -C2H5; R5= -H) the values are 0.44 in methanol and 0.38 in PBS.
Term sensitivity of fluorescent analysis is defined by the absolute sensitivity of label that may be represented as the product of molar extinction coefficient by quantum efficiency of fluorescence (ε*Φ). Thus, there are determined the absolute sensitivity of indodicarbocyanines (A1-A30, B1-B7) in appropriate absorption and fluorescence maxima in methanol and in aqueous phosphate buffered saline. The values are normalized to the maximal value obtained for dye (A30) in PBS (Table 1). In methanol, dyes (A10, A22, A23, A25, A30) have the upper-range of absolute sensitivity, but in PBS, dyes (A10, A22, A25, A29, A30) have the maximal values of sensitivity (Fig. 4).
To determine the most appropriate dyes for instrument setting, there are measured the relative efficiency of fluorescence of dyes at wavelength of excitation and record of the instrument (655 nm. / 690 nm). The maximal values appear to be specific to dyes (A25) and (A30) in methanol, and to dyes (A19, A22, A25, A29, A30) in PBS (Table 1, Fig. 5).
There are also measured the relative efficiency of fluorescence at wavelength of excitation and record of the instrument (635 nm / 670 nm). The maximal values appear to be specific to dyes (A1, A10, A11, A23) in methanol, and to dyes (A10, A22, A25, A29, A30) in PBS (Table 1, Fig. 6).

[2] = Molar extinction coefficient in methanol and PBS; design: ε·10^-5: unit not given here
Description: For all indodicarbocyanine dyes (I) (A1) - (A30) and (B1) - (B7) of the invention, there are determined the molar extinction coefficients in methanol and in aqueous phosphate buffered saline (PBS) (10 mM potassium phosphate buffer, sodium chloride concentration is 0.9%, pH 7.4). In methanol, indodicarbocyanine (A1, A8, A10-A12, A17, A23) has the upper-range of molar extinction coefficient (ε >[…]). In aqueous phosphate buffered saline (PBS), dyes (A10, A23, A30) have the maximal ε-value (Fig. 2).

[3] = Quantum efficiency of fluorescence, measured versus a reference dye
Description: For all indodicarbocyanine dyes (I) (A1) - (A30) and (B1) - (B7) of the invention, there are determined the quantum efficiency of fluorescence in methanol and in aqueous phosphate buffered saline (Table 1, Fig. 3). The measurements are performed versus dyes of formula (I) (R1= -CH3, R2= R6= -SO3^-; R3= -(CH2)5COOH, R4= -C2H5, R5= -H) whose quantum efficiency of fluorescence in PBS is 0.27 (Mader O., K. Reider, H.-J. Egelhaaaf, R, Fischer, R. Brock, Structure Properties of Pentamethine Indocyanine Dyes: Identification of New Dyes for Life Science Applications. Bioconjugate Chem, 2004, vol. 15, pp. 70-78). In methanol, dyes (A10, A22, A25, A29, A30) have the upper-range of quantum efficiency of fluorescence (Φ ∼ 0.3), but in PBS, dyes (A10, A22, A25, A29, A30) have the maximal Φ -value.

[4] = Absorption and fluorescence maxima of the dyes
Description: An insertion of methyl group at 5- and 7-positions of indolenyne cycle produces a bathochromic shift in the absorption and fluorescent spectra. As to the rest sulfur containing dyes, the spectral characteristics thereof appear to be in the same range (between about λmax 648 nm and λem 669 nm) (Fig. 1),

[5] = PBS (10 mM potassium phosphate buffer, 0.9% sodium chloride, pH 7.4)

With CCN1/C(=C/C=C/C=C/C2=[N+](CC)c3ccccc3C2(C)C)C(C)(CCCCC(=O)O)c2cc(S(=O)(=O)[O-])ccc21 (centres unmarked) [A9, N,N'-diethyl-3-(4-carboxybutyl)-5-sulfo-3,3',3'-trimethylindodicarbocyanine] the “Sensitivity of record 635/ 670” value ([1]; MeOH) was 0.424, the “Sensitivity of record 655/ 690” value ([1]; MeOH) was 0.124 and the “Sensitivity of record max/ max” value ([1]; MeOH) was 0.627. The “Sensitivity of record 635/ 670” value ([1]; PBS) was 0.229, the “Sensitivity of record 655/ 690” value ([1]; PBS) was 0.052 and the “Sensitivity of record max/ max” value ([1]; PBS) was 0.385. For the same molecule, the “ε·10^-5” value ([2]; MeOH) was 2.07±0.03, the “ε·10^-5” value [2, 5] was 1.91±0.02 and the “Φ (quantum efficiency of fluorescence)” value ([3]; MeOH) was 0.23. The “Φ (quantum efficiency of fluorescence)” value ([3]; PBS) was 0.15, the “λmax^abs” value ([4]; MeOH) was 648 nm and the “λmax^em” value ([4]; MeOH) was 663 nm. The “λmax^abs” value ([4]; PBS) was 646 nm and the “λmax^em” value ([4]; PBS) was 659 nm.
For CC[N+]1=C(C=CC=CC=C2N(CCCCS(=O)(=O)[O-])c3ccccc3C2(C)C)C(C)(CCCCC(=O)O)c2ccccc21 (centres unmarked) [A8, 3-(4-carboxybutyl)-N'-(4-sulfobutyl)-3,3',3'-trimethyl-N-ethylindodicarbocyanine], the “Sensitivity of record 635/ 670” value ([1]; MeOH) was 0.493, the “Sensitivity of record 655/ 690” value ([1]; MeOH) was 0.134 and the “Sensitivity of record max/ max” value ([1]; MeOH) was 0.730. The “Sensitivity of record 635/ 670” value ([1]; PBS) was 0.262, the “Sensitivity of record 655/ 690” value ([1]; PBS) was 0.054 and the “Sensitivity of record max/ max” value ([1]; PBS) was 0.433. The “ε·10^-5” value ([2]; MeOH) was 2.20±0.02, the “ε·10^-5” value [2, 5] was 2.13±0.02 and the molar extinction coefficient (ε) ([2]; in methanol) was over 220000 M⁻¹ cm⁻¹. The “Φ (quantum efficiency of fluorescence)” value ([3]; MeOH) was 0.26, the “Φ (quantum efficiency of fluorescence)” value ([3]; PBS) was 0.15 and the “λmax^abs” value ([4]; MeOH) was 647 nm. For the same molecule, the “λmax^em” value ([4]; MeOH) was 662 nm, the “λmax^abs” value ([4]; PBS) was 646 nm and the “λmax^em” value ([4]; PBS) was 660 nm.
In the case of CCN1C(=CC=CC=CC2=[N+](CCCCS(=O)(=O)[O-])c3ccccc3C2(C)CCCCC(=O)O)C(C)(C)c2ccccc21 (centres unmarked) [A1, 3-(4-carboxybutyl)-N-(4-sulfobutyl)-3,3',3'-trimethyl-N'-ethylindodicarbocyanine], the “Sensitivity of record 655/ 690” value ([1]; MeOH) is reported as 0.025, the “Sensitivity of record max/ max” value ([1]; MeOH) is reported as 0.737 and the “Sensitivity of record 635/ 670” value ([1]; PBS) is reported as 0.123. The “Sensitivity of record 655/ 690” value ([1]; PBS) was 0.153, the “Sensitivity of record max/ max” value ([1]; PBS) was 0.372 and the “ε·10^-5” value ([2]; MeOH) was 2.47±0.02. For the same molecule, the “ε·10^-5” value [2, 5] was 2.06±0.02, the “Φ (quantum efficiency of fluorescence)” value ([3]; MeOH) was 0.25 and the “Φ (quantum efficiency of fluorescence)” value ([3]; PBS) was 0.13. For the same molecule, the “λmax^abs” value ([4]; MeOH) was 644 nm, the “λmax^em” value ([4]; MeOH) was 662 nm and the “λmax^abs” value ([4]; PBS) was 643 nm. For the same molecule, the “λmax^em” value ([4]; PBS) was 657 nm.
With CC[N+]1=C(/C=C/C=C/C=C2/N(CCCCS(=O)(=O)[O-])c3ccc(C)cc3C2(C)CCCCC(=O)O)C(C)(C)c2cc(C)cc(C)c21 (centres unmarked) [A6, 3,3',3',5,5'.7'-hexamethyl-3-(4-carboxybutyl)-N-(4-sulfobutyl)-N'-ethylindodicarbocyanine] the “Sensitivity of record 635/ 670” value ([1]; MeOH) was 0.151, the “Sensitivity of record 655/ 690” value ([1]; MeOH) was 0.198 and the “Sensitivity of record max/ max” value ([1]; MeOH) was 0.292. For the same molecule, the “Sensitivity of record 635/ 670” value ([1]; PBS) was 0.089, the “Sensitivity of record 655/ 690” value ([1]; PBS) was 0.085 and the “Sensitivity of record max/ max” value ([1]; PBS) was 0.170. For the same molecule, the “ε·10^-5” value ([2]; MeOH) was 2.13±0.03, the “ε·10^-5” value [2, 5] was 1.82±0.03 and the “Φ (quantum efficiency of fluorescence)” value ([3]; MeOH) was 0.11. For the same molecule, the “Φ (quantum efficiency of fluorescence)” value ([3]; PBS) was 0.07, the “λmax^abs” value ([4]; MeOH) was 654 nm and the “λmax^em” value ([4]; MeOH) was 672 nm. The “λmax^abs” value ([4]; PBS) was 656 nm and the “λmax^em” value ([4]; PBS) was 676 nm.
In the case of CC[N+]1=C(/C=C/C=C/C=C2/N(CCCCS(=O)(=O)[O-])c3ccccc3C2(C)CCCCC(=O)O)C(C)(C)c2cc(C)cc(C)c21 (centres unmarked) [A3, 3-(4-Carboxybutyl)-3,3',3',5',7'-pentamethyl-N-(4-sulfobutyl)-N'-ethylindodicarbocyanine], the “Sensitivity of record 635/ 670” value ([1]; MeOH) is reported as 0.210, the “Sensitivity of record 655/ 690” value ([1]; MeOH) is reported as 0.138 and the “Sensitivity of record max/ max” value ([1]; MeOH) is reported as 0.314. The “Sensitivity of record 635/ 670” value ([1]; PBS) was 0.132, the “Sensitivity of record 655/ 690” value ([1]; PBS) was 0.069 and the “Sensitivity of record max/ max” value ([1]; PBS) was 0.199. The “ε·10^-5” value ([2]; MeOH) was 1.93±0.01, the “ε·10^-5” value [2, 5] was 1.84±0.01 and the “Φ (quantum efficiency of fluorescence)” value ([3]; MeOH) was 0.12. The “Φ (quantum efficiency of fluorescence)” value ([3]; PBS) was 0.08, the “λmax^abs” value ([4]; MeOH) was 652 nm and the “λmax^em” value ([4]; MeOH) was 670 nm. For the same molecule, the “λmax^abs” value ([4]; PBS) was 650 nm and the “λmax^em” value ([4]; PBS) was 665 nm.
For CC[N+]1=C(/C=C/C=C/C=C2/N(CCCCS(=O)(=O)[O-])c3ccccc3C2(C)CCCCC(=O)O)C(C)(C)c2cc(C)ccc21 (centres unmarked) [A2, 3-(4-Carboxybutyl)-N-(4-sulfobutyl)-3,3',3',5'-tetramethyl-N'-ethylindodicarbocyanine], the “Sensitivity of record 635/ 670” value ([1]; MeOH) was 0.320, the “Sensitivity of record 655/ 690” value ([1]; MeOH) was 0.149 and the “Sensitivity of record max/ max” value ([1]; MeOH) was 0.442. The “Sensitivity of record 635/ 670” value ([1]; PBS) was 0.184, the “Sensitivity of record 655/ 690” value ([1]; PBS) was 0.068 and the “Sensitivity of record max/ max” value ([1]; PBS) was 0.261. The “ε·10^-5” value ([2]; MeOH) was 2.01±0.01, the “ε·10^-5” value [2, 5] was 1.99±0.03 and the “Φ (quantum efficiency of fluorescence)” value ([3]; MeOH) was 0.17. The “Φ (quantum efficiency of fluorescence)” value ([3]; PBS) was 0.09, the “λmax^abs” value ([4]; MeOH) was 649 nm and the “λmax^em” value ([4]; MeOH) was 667 nm. The “λmax^abs” value ([4]; PBS) was 647 nm and the “λmax^em” value ([4]; PBS) was 662 nm.
With CC1(C)C(=CC=CC=CC2=[N+](CCCCS(=O)(=O)[O-])c3ccc(CCC(=O)O)cc3C2(C)C)N(CCCCS(=O)(=O)[O-])c2ccccc21.[Na+] [B5, N,N'-disulfobutyl-5-carboxyethyl-3,3,3',3'-tetramethylindodicarbocyanine, sodium salt] the molar extinction coefficient ([2]; solvent not stated) was “about 200,000” and the “Φ (quantum efficiency of fluorescence)” value ([3]; MeOH) was 0.17.
